According to patent EP4603105A1, “PHARMACEUTICAL COMPOSITION CONTAINING CYCLIC COMPOUND HAVING SELECTIVE KRAS INHIBITORY EFFECT AGAINST HRAS AND NRAS” (CHUGAI SEIYAKU KABUSHIKI KAISHA, priority 2022, dated 2024):
Where two headings read alike, the source gives them in different places.

Experiments:
[1] = target: GDP-bound KRAS wild-type protein (Homo sapiens, UniProt P01116); assay: Binding to KRAS by surface plasmon resonance (SPR), dissociation constant KD
Method in brief: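 SPR, 30°C: Avi-biotin RAS·GDP captured via Biotin CAPture (~100–300 RU); running buffer HBS pH 7.4, 1 mM DTT, 10 mM MgCl2, 0.01% Tween 20, 10 µM GDP, 4% DMSO. Single-cycle kinetics, 100 µL/min, 75 s injections; 1:1 model → KD.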

[2] = target: GDP-bound NRAS wild-type protein (Homo sapiens, UniProt P01111); assay: Binding to NRAS by surface plasmon resonance (SPR), KD and KD ratio to KRAS
Method in brief: (§1)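 Captured GDP-RAS (~100–300 RU) was exposed to increasing compound concentrations, 75 s per step, in running buffer with 10 µM GDP, 10 mM MgCl2 and 4% DMSO at pH 7.4.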

HRAS wild-type protein = HRAS wild-type protein (Homo sapiens, UniProt P01112); assay: Binding to HRAS by surface plasmon resonance (SPR), KD and KD ratio to KRAS
Method in brief: as §1

[3] = system: human lung cancer strain NCI-H441; assay: NCI-H441 cell proliferation inhibitory activity (CellTiter-Glo, 4 days); type: cell-based; settings: read-out: NCl-H441 IC50
Method in brief: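 Step one: dispense the test compound in serial DMSO dilutions. Step three: add the reagent and measure […].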

[4] = Single Cycle Kinetics, 1:1 binding model
[5] = ratio of KD with respect to GDP-bound NRAS wild-type protein to KD with respect to KRAS
[6] = ratio of KD with respect to HRAS wild-type protein to KD with respect to KRAS
[7] = 50% proliferation inhibitory concentration, four days
[8] = ratio of KD for GDP-bound NRAS wild-type protein to KD for KRAS
[9] = ratio of KD for HRAS wild-type protein to KD for KRAS

GDP-bound NRAS wild-type protein, sequence (P01111 whole entry): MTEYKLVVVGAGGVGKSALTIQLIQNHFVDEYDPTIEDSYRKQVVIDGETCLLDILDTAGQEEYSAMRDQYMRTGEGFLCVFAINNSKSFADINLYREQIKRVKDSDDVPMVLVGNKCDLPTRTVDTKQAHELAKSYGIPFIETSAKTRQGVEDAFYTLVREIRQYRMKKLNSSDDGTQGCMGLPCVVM
GDP-bound KRAS wild-type protein, sequence (P01116 1-188 isoform P01116-2): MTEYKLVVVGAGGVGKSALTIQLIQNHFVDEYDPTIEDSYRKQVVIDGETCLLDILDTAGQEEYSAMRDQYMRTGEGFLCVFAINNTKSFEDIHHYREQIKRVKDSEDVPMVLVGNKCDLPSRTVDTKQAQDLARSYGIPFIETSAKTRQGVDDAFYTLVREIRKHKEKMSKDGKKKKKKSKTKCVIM
HRAS wild-type protein, sequence (P01112 whole entry): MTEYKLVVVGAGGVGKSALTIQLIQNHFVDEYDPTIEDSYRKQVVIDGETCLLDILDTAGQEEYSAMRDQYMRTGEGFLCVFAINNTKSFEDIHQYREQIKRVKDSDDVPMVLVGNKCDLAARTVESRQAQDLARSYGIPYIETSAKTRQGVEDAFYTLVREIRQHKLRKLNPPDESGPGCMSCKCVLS

Structure (SMILES) | Kd [1, 4] | IC50 [3, 7] | Kd ([1]; Single Cycle Kinetics) | IC50 ([3]; NCI-H441 cells, 4 days) | Kd ([1]; 1:1 binding model) | NRAS /KRAS [2, 5] | HRAS /KRAS (HRAS wild-type protein; [6]) | NRAS /KRAS [2, 8] | HRAS /KRAS (HRAS wild-type protein; [9])
CCO[C@@H]1C[C@H]2C(=O)NC3(CCC3)C(=O)N(C)[C@@H](C3CCCC3)C(=O)N(C)[C@H](C(=O)N3CCOCC3)CC(=O)N(C)[C@@H](Cc3ccccc3C#N)C(=O)N[C@@H]([C@@H](C)CC)C(=O)N(C)CC(=O)N(C)[C@H]3CCCCCN(C3=O)[C@@H](Cc3ccc(F)cc3)C(=O)N(C)CC(=O)N[C@@H](CCc3cc(F)c(C(F)(F)F)c(F)c3)C(=O)N2C1 [PP1185] | 0.5 nM | 175 nM | – | – | – | B (a compound having 3 or more and less than 10 is denoted as B) | B (a compound having 3 or more and less than 10 is denoted as B) | – | –
CCO[C@@H]1C[C@H]2C(=O)NC3(CCC3)C(=O)N(C)[C@@H](C3CCCC3)C(=O)N(C)[C@H](C(=O)N(C)C)CC(=O)N(C)[C@@H](CC3CC3)C(=O)N[C@@H]([C@@H](C)CC)C(=O)N(C)CC(=O)N(C)[C@H]3C/C=C\CCN(C3=O)[C@@H](CC3CCCCC3)C(=O)N(C)CC(=O)N[C@@H](CCc3cc(F)c(C(F)(F)F)c(F)c3)C(=O)N2C1 [PP1446] | 0.2 nM | 32 nM | – | – | – | A (a compound having 10 or more and less than 20 is denoted as A) | A (a compound having 10 or more and less than 20 is denoted as A) | – | –
CCO[C@@H]1C[C@H]2C(=O)NC3(CCC3)C(=O)N(C)[C@@H](C(CC)CC)C(=O)N(C)[C@H](C(=O)N(C)C)CC(=O)N(C)[C@@H](CC)C(=O)N[C@@H]([C@@H](C)CC)C(=O)N(C)CC(=O)N(C)[C@H]3C/C=C\CCN(C3=O)[C@@H](Cc3ccc(C(F)(F)F)cc3)C(=O)N(C)CC(=O)N[C@@H](CCc3ccc(C(F)(F)F)c(OC)c3)C(=O)N2C1 [PP1207] | 0.21 nM | 29.9 nM | – | – | – | AA (a compound having 20 or more is denoted as AA) | A (a compound having 10 or more and less than 20 is denoted as A) | – | –
CCO[C@@H]1C[C@H]2C(=O)NC3(CCC3)C(=O)N(C)[C@@H](C3CCCC3)C(=O)N(C)[C@H](C(=O)N3CCOCC3)CC(=O)N(C)[C@@H](CC(C)C)C(=O)N[C@@H]([C@@H](C)CC)C(=O)N3CC[C@H]3C(=O)N(C)[C@H]3CC[C@@H](C)CN(C3=O)[C@@H](Cc3ccc(C(F)(F)F)cc3)C(=O)N(C)CC(=O)N[C@@H](CCc3ccc(C(F)(F)F)c(Cl)c3)C(=O)N2C1 [PP1379] | 0.29 nM | 10.3 nM | – | – | – | A (a compound having 10 or more and less than 20 is denoted as A) | B (a compound having 3 or more and less than 10 is denoted as B) | – | –
CCCOC[C@H]1C(=O)N[C@@H]([C@@H](C)CC)C(=O)N(C)CC(=O)N(C)[C@H]2C/C=C\CCN(C2=O)[C@@H](Cc2ccc(C)cc2)C(=O)N(C)CC(=O)N[C@@H](CCc2ccc(C(F)(F)F)c(Cl)c2)C(=O)N2C[C@@H](C)C[C@H]2C(=O)NC2(CC(C)(C)C2)C(=O)N(C)[C@@H](C2CCCC2)C(=O)N(C)[C@H](C(=O)N(C)CC)CC(=O)N1C [PP2467] | – | – | – | 21.8 nM | 0.26 nM | – | – | A (a compound having 10 or more and less than 20 is denoted as A) | B (a compound having 3 or more and less than 10 is denoted as B)
CCO[C@@H]1C[C@H]2C(=O)NC3(CCC3)C(=O)N(C)[C@@H](C(CC)CC)C(=O)N(C)[C@H](C(=O)N(C)C)CC(=O)N(C)[C@@H](COC)C(=O)N[C@@H]([C@@H](C)CC)C(=O)N(C)CC(=O)N(C)[C@H]3C/C=C\CCN(C3=O)[C@@H](Cc3ccc(C(F)(F)F)cc3)C(=O)N(C)CC(=O)N[C@@H](CCc3ccc(Cl)c(Cl)c3)C(=O)N2C1 [PP1221] | 0.4 nM | 40.6 nM | – | – | – | AA (a compound having 20 or more is denoted as AA) | A (a compound having 10 or more and less than 20 is denoted as A) | – | –
CCO[C@@H]1C[C@H]2C(=O)NC3(CCC3)C(=O)N(C)[C@@H](C(CC)CC)C(=O)N(C)[C@H](C(=O)N(C)C)CC(=O)N(C)[C@@H](CC3CCCC3)C(=O)N[C@@H]([C@@H](C)CC)C(=O)N(C)CC(=O)N(C)[C@H]3C/C=C\CCN(C3=O)[C@@H](Cc3ccc(C(F)(F)F)cc3)C(=O)N(C)CC(=O)N[C@@H](CCc3ccc(C(F)(F)F)c(OC)c3)C(=O)N2C1 [PP1212] | 0.28 nM | 35.6 nM | – | – | – | AA (a compound having 20 or more is denoted as AA) | A (a compound having 10 or more and less than 20 is denoted as A) | – | –
CCC[C@H]1C(=O)N[C@@H]([C@@H](C)CC)C(=O)N(C)CC(=O)N(C)[C@H]2C/C=C\CCN(C2=O)[C@@H](Cc2ccc(C)cc2)C(=O)N(C)CC(=O)N[C@@H](CCc2ccc(C(F)(F)F)c(Cl)c2)C(=O)N2CC3(CC3)C[C@H]2C(=O)N(C)C2(CCC2)C(=O)N(C)[C@@H](C2CCCC2)C(=O)N(C)[C@H](C(=O)N(C)C)CC(=O)N1C [PP3298] | – | – | 0.34 nM | 3.4 nM | – | – | – | B (a compound having 3 or more and less than 10 is denoted as B) | B (a compound having 3 or more and less than 10 is denoted as B)
CCOC[C@H]1C(=O)N[C@@H]([C@@H](C)CC)C(=O)N(C)CC(=O)N(C)[C@H]2C/C=C\CCN(C2=O)[C@@H](CC2CCC(F)(F)CC2)C(=O)N(C)CC(=O)N[C@@H](CCc2cc(F)c(C(F)(F)F)c(F)c2)C(=O)N2C[C@H](OCC)C[C@H]2C(=O)NC2(CC(C)(C)C2)C(=O)N(C)[C@@H](C(CC)CC)C(=O)N(C)[C@H](C(=O)N(C)C)CC(=O)N1C [PP2450] | – | – | – | 29.2 nM | 0.55 nM | – | – | A (a compound having 10 or more and less than 20 is denoted as A) | A (a compound having 10 or more and less than 20 is denoted as A)
CCC(CC)[C@H]1C(=O)N(C)[C@H](C(=O)N(C)C)CC(=O)N(C)[C@@H](COC)C(=O)N[C@@H]([C@@H](C)CC)C(=O)N(C)CC(=O)N(C)[C@H]2C/C=C\CCN(C2=O)[C@@H](CC2CCCCC2)C(=O)N(C)CC(=O)N[C@@H](CCc2ccc(C(F)(F)F)c(OC)c2)C(=O)N2C[C@@H](C)C[C@H]2C(=O)NC2(CC(C)(C)C2)C(=O)N1C [PP2466] | – | – | – | 170 nM | 3.9 nM | – | – | A (a compound having 10 or more and less than 20 is denoted as A) | A (a compound having 10 or more and less than 20 is denoted as A)

Now from value to molecule, other results behind:

Kd [1, 4] | IC50 [3, 7] | Kd ([1]; Single Cycle Kinetics) | IC50 ([3]; NCI-H441 cells, 4 days) | Kd ([1]; 1:1 binding model) | Structure (SMILES) | NRAS /KRAS [2, 5] | HRAS /KRAS (HRAS wild-type protein; [6]) | NRAS /KRAS [2, 8] | HRAS /KRAS (HRAS wild-type protein; [9])
– | – | 0.43 nM | 14.8 nM | – | CCC[C@H]1C(=O)N[C@@H]([C@@H](C)CC)C(=O)N2CCC[C@H]2C(=O)N(C)[C@H]2C/C=C\CCN(C2=O)[C@@H](Cc2ccc(C(F)(F)F)cc2)C(=O)N(C)CC(=O)N[C@@H](CCc2cc(F)c(C(F)(F)F)c(F)c2)C(=O)N2C[C@H](OCC)C[C@H]2C(=O)NC2(CCCC2)C(=O)N(C)[C@@H](C2CCCC2)C(=O)N(C)[C@H](C(=O)N(C)C)CC(=O)N1C [PP3474] | – | – | A (a compound having 10 or more and less than 20 is denoted as A) | A (a compound having 10 or more and less than 20 is denoted as A)
– | – | 1.3 nM | 65.5 nM | – | C=C(C)C[C@H]1C(=O)N(C)[C@H](C(=O)N(C)C)CC(=O)N(C)[C@@H](CCC)C(=O)N[C@@H]([C@@H](C)CC)C(=O)N(C)CC(=O)N(C)[C@H]2C/C=C\CCN(C2=O)[C@@H](Cc2ccc(C(F)(F)F)cc2)C(=O)N(C)CC(=O)N[C@@H](CCc2cc(F)c(C(F)(F)F)c(F)c2)C(=O)N2C[C@H](OCC)C[C@H]2C(=O)N(C)C2(CCC2)C(=O)N1C [PP3337] | – | – | A (a compound having 10 or more and less than 20 is denoted as A) | A (a compound having 10 or more and less than 20 is denoted as A)
– | – | 0.3 nM | 23.7 nM | – | C#CCN1CC(=O)N(C)[C@H]2C/C=C\CCN(C2=O)[C@@H](Cc2ccc(C(F)F)cc2)C(=O)N(C)CC(=O)N[C@@H](CCc2cc(F)c(C(F)(F)F)c(F)c2)C(=O)N2C[C@H](OC(C)C)C[C@H]2C(=O)N(C)C2(CCC2)C(=O)N(C)[C@@H](C(CC)CC)C(=O)N(C)[C@H](C(=O)N(C)C)CC(=O)N(C)[C@@H](COCCC)C(=O)N[C@@H]([C@@H](C)CC)C1=O [PP3490] | – | – | A (a compound having 10 or more and less than 20 is denoted as A) | A (a compound having 10 or more and less than 20 is denoted as A)
– | – | 0.53 nM | 13.5 nM | – | CCC[C@H]1C(=O)N[C@@H]([C@@H](C)CC)C(=O)N(C2CC2)CC(=O)N(C)[C@H]2C/C=C\CCN(C2=O)[C@@H](Cc2ccc(C(F)(F)F)cc2)C(=O)N(C)CC(=O)N[C@@H](CCc2cc(F)c(C(F)(F)F)c(F)c2)C(=O)N2C[C@H](OCC)C[C@H]2C(=O)NC2(CCCC2)C(=O)N(C)[C@@H](C2CCCC2)C(=O)N(C)[C@H](C(=O)N(C)C)CC(=O)N1C [PP3473] | – | – | AA (a compound having 20 or more is denoted as AA) | B (a compound having 3 or more and less than 10 is denoted as B)
– | – | 0.61 nM | 12.2 nM | – | CCCO[C@@H]1C[C@H]2C(=O)NC3(CC(C)(C)C3)C(=O)N(C)[C@@H](C3CCCC3)C(=O)N(C)[C@H](C(=O)N(C)CC)CC(=O)N(C)[C@@H](COCC)C(=O)N[C@@H]([C@@H](C)CC)C(=O)N(C3CC3)CC(=O)N(C)[C@H]3C/C=C\CCN(C3=O)[C@@H](Cc3ccc(C(F)(F)F)cc3)C(=O)N(C)CC(=O)N[C@@H](CCc3cc(F)c(C(F)(F)F)c(F)c3)C(=O)N2C1 [PP3470] | – | – | A (a compound having 10 or more and less than 20 is denoted as A) | A (a compound having 10 or more and less than 20 is denoted as A)
